From PubChem BioAssay AID248 (DTP/NCI, 2004)
Where “and” joins values, the source holds several entries; their conditions need not be identical. Equal values may be shown once. Toxic doses and inconclusive results are not listed. Cut-off read from the data, not from the text of the source: active = T/C of 150% or more; inactive = T/C below 125%.

Test system: L1210 leukemia ip in BDF1 mice, survival T/C
Assay: NCI In Vivo Anticancer Drug Screen. Data for tumor model L1210 Leukemia (intraperitoneal) in B6D2F1 (BDF1) mice
Conditions: endpoint: mean survival time, higher = longer survival
Outline: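 Transplantable tumor model; survival measured in treated vs vehicle control mice. Value = treated/control.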

[1] = dose: 100.0 mg/kg/injection, schedule: Q01DX001 (ip), vehicle: saline with Tween-80
[2] = dose: 100.0 mg/kg/injection, schedule: Q04DX003 (ip), vehicle: saline with Tween-80
[3] = dose: 200.0 mg/kg/injection, schedule: Q01DX001 (ip), vehicle: saline with Tween-80
[4] = dose: 200.0 mg/kg/injection, schedule: Q04DX003 (ip), vehicle: saline with Tween-80
[5] = dose: 400.0 mg/kg/injection, schedule: Q01DX001 (ip), vehicle: saline with Tween-80

Measured: T/C

O=C(O)CC(NC(=O)OCc1ccccc1)c1ccc(Cl)cc1 (configuration not stated)
inactive: [1] 90 % of control | dose: 100.0 mg/kg/injection, schedule: Q01DX009 (ip), vehicle: saline with Tween-80 100 % of control and 112 % of control | dose: 100.0 mg/kg/injection, schedule: Q04DX002 (ip), vehicle: saline with Tween-80 103 % of control | [2] 101 % of control | [3] 94 % of control | dose: 200.0 mg/kg/injection, schedule: Q01DX009 (ip), vehicle: saline with Tween-80 93 % of control and 102 % of control | dose: 200.0 mg/kg/injection, schedule: Q04DX002 (ip), vehicle: saline with Tween-80 103 % of control | [4] 93 % of control | [5] 101 % of control | dose: 400.0 mg/kg/injection, schedule: Q04DX002 (ip), vehicle: saline with Tween-80 92 % of control | dose: 400.0 mg/kg/injection, schedule: Q04DX003 (ip), vehicle: saline with Tween-80 101 % of control

COC(=O)c1[nH]ncc1N=NN(C)C
inactive: dose: 176.0 mg/kg/injection, schedule: Q01DX001 (ip), vehicle: carboxymethylcellulose (CMC) 111 % of control | dose: 264.0 mg/kg/injection, schedule: Q01DX001 (ip), vehicle: carboxymethylcellulose (CMC) 120 % of control | dose: 400.0 mg/kg/injection, schedule: Q01DX001 (ip), vehicle: carboxymethylcellulose (CMC) 113 % of control

c1ccc(CCN2CCCCC2)nc1
inactive: dose: 1.56 mg/kg/injection, schedule: Q01DX009 (ip), vehicle: saline 94 % of control | dose: 3.13 mg/kg/injection, schedule: Q01DX009 (ip), vehicle: saline 93 % of control | dose: 6.25 mg/kg/injection, schedule: Q01DX009 (ip), vehicle: saline 89 % of control

NC1=CC(=O)C(=O)c2cccnc21
inactive: dose: 75.0 mg/kg/injection, schedule: Q01DX001 (ip), vehicle: other 92 % of control

O=C(Nc1ccc(Nc2ccccc2)cc1)Nc1cccc(C(F)(F)F)c1
inactive: dose: 100.0 mg/kg/injection, schedule: Q01DX001 (ip), vehicle: gum acacia 94 % of control and 97 % of control | dose: 100.0 mg/kg/injection, schedule: Q01DX009 (ip), vehicle: gum acacia 94 % of control and 98 % of control | dose: 100.0 mg/kg/injection, schedule: Q04DX002 (ip), vehicle: gum acacia 95 % of control | dose: 100.0 mg/kg/injection, schedule: Q04DX003 (ip), vehicle: gum acacia 100 % of control and 101 % of control | dose: 200.0 mg/kg/injection, schedule: Q01DX001 (ip), vehicle: gum acacia 97 % of control and 90 % of control | dose: 200.0 mg/kg/injection, schedule: Q01DX009 (ip), vehicle: gum acacia 98 % of control and 103 % of control | dose: 200.0 mg/kg/injection, schedule: Q04DX002 (ip), vehicle: gum acacia 93 % of control and 86 % of control | dose: 200.0 mg/kg/injection, schedule: Q04DX003 (ip), vehicle: gum acacia 94 % of control | dose: 400.0 mg/kg/injection, schedule: Q01DX001 (ip), vehicle: gum acacia 103 % of control and 87 % of control | dose: 400.0 mg/kg/injection, schedule: Q01DX009 (ip), vehicle: gum acacia 97 % of control and 91 % of control | dose: 400.0 mg/kg/injection, schedule: Q04DX002 (ip), vehicle: gum acacia 100 % of control | dose: 400.0 mg/kg/injection, schedule: Q04DX003 (ip), vehicle: gum acacia 95 % of control and 96 % of control

CC(=O)c1ccccc1OCC(O)CN1CCN(c2ccccc2Cl)CC1 (configuration not stated)
inactive: dose: 37.5 mg/kg/injection, schedule: Q01DX009 (ip), vehicle: saline with Tween-80 97 % of control | dose: 37.5 mg/kg/injection, schedule: Q04DX003 (ip), vehicle: saline with Tween-80 105 % of control | dose: 75.0 mg/kg/injection, schedule: Q01DX009 (ip), vehicle: saline with Tween-80 89 % of control | dose: 75.0 mg/kg/injection, schedule: Q04DX003 (ip), vehicle: saline with Tween-80 108 % of control | dose: 150.0 mg/kg/injection, schedule: Q01DX009 (ip), vehicle: saline with Tween-80 93 % of control | dose: 150.0 mg/kg/injection, schedule: Q04DX003 (ip), vehicle: saline with Tween-80 94 % of control

COc1cc([N+](=O)[O-])c2c(ccc[n+]2C)c1OC
inactive: [2] 98 % of control | [4] 89 % of control

O=S1(=O)CC(O)C(Br)C1Br (configuration not stated)
inactive: dose: 100.0 mg/kg/injection, schedule: Q01DX001 (ip), vehicle: Klucel (hydroxypropylcellulose) (HPC) 96 % of control | dose: 200.0 mg/kg/injection, schedule: Q01DX001 (ip), vehicle: Klucel (hydroxypropylcellulose) (HPC) 104 % of control | dose: 400.0 mg/kg/injection, schedule: Q01DX001 (ip), vehicle: Klucel (hydroxypropylcellulose) (HPC) 94 % of control

CNC=O
inactive: dose: 32.0 mg/kg/injection, schedule: Q01DX015 (ip), vehicle: saline 94 % of control | dose: 42.87 mg/kg/injection, schedule: Q01DX Z (ip), vehicle: carboxymethylcellulose (CMC) 102 % of control | dose: 42.88 mg/kg/injection, schedule: Q01DX Z (ip), vehicle: carboxymethylcellulose (CMC) 107 % of control | dose: 44.12 mg/kg/injection, schedule: Q01DX Z (ip), vehicle: carboxymethylcellulose (CMC) 98 % of control | dose: 63.0 mg/kg/injection, schedule: Q01DX015 (ip), vehicle: saline 94 % of control | dose: 75.0 mg/kg/injection, schedule: Q01DX009 (ip), vehicle: saline 112 % of control | dose: 85.75 mg/kg/injection, schedule: Q01DX Z (ip), vehicle: carboxymethylcellulose (CMC) 103 % of control and 113 % of control | dose: 125.0 mg/kg/injection, schedule: Q01DX015 (ip), vehicle: saline 102 % of control | dose: 125.0 mg/kg/injection, schedule: Q01DX Z (ip), vehicle: saline 110 % of control | dose: 150.0 mg/kg/injection, schedule: Q01DX009 (ip), vehicle: saline 112 % of control | dose: 150.0 mg/kg/injection, schedule: Q01DX Z (ip), vehicle: saline 114 % of control | dose: 171.5 mg/kg/injection, schedule: Q01DX Z (ip), vehicle: carboxymethylcellulose (CMC) 110 % of control and 115 % of control | dose: 176.5 mg/kg/injection, schedule: Q01DX Z (ip), vehicle: carboxymethylcellulose (CMC) 111 % of control | dose: 225.0 mg/kg/injection, schedule: Q01DX001 (ip), vehicle: saline 101 % of control | dose: 225.0 mg/kg/injection, schedule: Q04DX003 (ip), vehicle: saline 97 % of control | dose: 250.0 mg/kg/injection, schedule: Q01DX015 (ip), vehicle: saline 110 % of control | dose: 300.0 mg/kg/injection, schedule: Q01DX009 (ip), vehicle: saline 121 % of control | dose: 343.0 mg/kg/injection, schedule: Q01DX Z (ip), vehicle: carboxymethylcellulose (CMC) 101 % of control and 118 % of control | dose: 353.0 mg/kg/injection, schedule: Q01DX Z (ip), vehicle: carboxymethylcellulose (CMC) 100 % of control | dose: 450.0 mg/kg/injection, schedule: Q01DX001 (ip), vehicle: saline 97 % of control | dose: 450.0 mg/kg/injection, schedule: Q04DX003 (ip), vehicle: saline 101 % of control | dose: 600.0 mg/kg/injection, schedule: Q01DX Z (ip), vehicle: saline 121 % of control | dose: 900.0 mg/kg/injection, schedule: Q01DX001 (ip), vehicle: saline 95 % of control | dose: 900.0 mg/kg/injection, schedule: Q04DX003 (ip), vehicle: saline 119 % of control | dose: 1000.0 mg/kg/injection, schedule: Q01DX015 (ip), vehicle: saline 105 % of control

CC1NCCC1CO (configuration not stated)
inactive: dose: 50.0 mg/kg/injection, schedule: Q01DX009 (ip), vehicle: saline 104 % of control | dose: 100.0 mg/kg/injection, schedule: Q01DX009 (ip), vehicle: saline 97 % of control | dose: 100.0 mg/kg/injection, schedule: Q04DX003 (ip), vehicle: saline 96 % of control | dose: 200.0 mg/kg/injection, schedule: Q01DX009 (ip), vehicle: saline 94 % of control | dose: 200.0 mg/kg/injection, schedule: Q04DX003 (ip), vehicle: saline 104 % of control

COC(=O)c1cccc(O)c1
inactive: [1] 94 % of control | [3] 91 % of control | [5] 98 % of control

Nc1ccc(CNC(=O)COc2ccc(Cl)cc2C(=O)O)cc1
inactive: dose: 100.0 mg/kg/injection, schedule: Q04DX003 (ip), vehicle: Klucel (hydroxypropylcellulose) (HPC) 110 % of control | dose: 200.0 mg/kg/injection, schedule: Q04DX003 (ip), vehicle: Klucel (hydroxypropylcellulose) (HPC) 94 % of control | dose: 400.0 mg/kg/injection, schedule: Q04DX003 (ip), vehicle: Klucel (hydroxypropylcellulose) (HPC) 100 % of control
